Values after ≈ are worked out from the molar mass of the structure shown. Read-outs that look alike come from different tables or passages of the source.

One series deals with mice. In words: Acetic acid extension test on mice (analgesic action). The note with it: Mus musculus, po; for responders at 158 mg/kg: read-out: Animals which showed analgesic effect in % after an oral dose of 158 mg/kg; for ED50: read-out: Analgesic action ED50, acetic acid extension test (Mouse). Here is the method: (§1) (a) Acetic acid extension test on mice in accordance with the method of R. Koster et al., Fed. Prod.
(§2) Female mice of a N.M.R.I. strain with a body weight (BW) of between 21 and 28 g were used as the experimental animals. Groups of in each case 12 animals received 0.1 ml/10 g BW of a 0.6% strength acetic acid solution, injected intraperitoneally. The test substances were administered 30 minutes beforehand. Immediately after the acetic acid injection, the animals were placed individually and the typical extension movements occurring within 15 minutes were counted, these consisting of brief flexing of the abdominal muscles with withdrawal of the sides and subsequent extension of the rear of the body and of at least one rear extremity.
(§3) The test substances were administered orally in a volume of 10 ml/kg BW in 1% strength aqueous carboxymethylcellulose (CMC) suspension.

A short description of series [1]: Modified Randall-Selitto hyperalgesia test on rats (analgesic action). The note with it: rat, in vivo, po. How it is done: (§4) (b) Modified Randall-Selitto hyperalgesia test on rats in accordance with the method of Atkinson et al., J. Pharm. Pharmac.
(§5) Male Sprague-Dawley rats with a body weight of 200 to 300 g were used as the experimental animals. The experimental animals were given a subplantar injection of 0.2 ml of brewer's yeast suspension (40% of yeast in 0.9% strength NaCl solution) into the left hind paw under mild ether anaesthesia. After 5 hours, the gait of the animals over a metal grating was evaluated according to the following scale:
(§6) The evaluation was effected by determining the percentage of animals evaluated with stage 1 or 0.5, two animals given 0.5 being regarded as showing an analgesic effect.
(§7) The test substances were administered orally, to animals which had been fasted for 15 hours, in CMC suspension in a volume of 10 ml/kg BW two hours before the evaluation of the animals. In order to exclude subjective influences, the evaluation was performed by two people independently of one another and without knowledge of the pretreatment of the animals (n=10/dose). The ED50 values were determined with the aid of linear regression in accordance with the method of Fieller and Sidak.

Series [2] deals with rats. Described as above. The following applies: Rattus norvegicus, po, 2 h, read-out: Analgesic action ED50, Randall-Selitto test (Rat). Here is the method:
as §4, §5, §6, §7

Series [3] in a line: Gastrointestinal ulcerogenicity. The note with it: in vivo, po, rat. Format: in vivo, rat (male Sprague-Dawley). How it is done:
(§8) In this test on male Sprague-Dawley rats with a body weight of between 200 and 300 g, an increased sensitivity of the gastric mucosa toward the ulcerogenic action of non-steroid antiflammatories was induced by hunger stress (withdrawal of food for a total of 72 hours).
(§9) 48 hours before administration of the test substances, the food was withdrawn from the animals until the end of the experiment, the animals having free access to drinking water.
(§10) 24 hours after oral administration of the product, the animals were sacrificed and the stomachs were removed, cut along the lesser curvature, cleaned under running water and inspected for lesions in the mucous membrane. All the macroscopically visible lesions of the mucosa in the glandular atomach were regarded as ulcers. The proportion of animals with ulcers per dose was determined.
(§11) The test substances were administered as a solution in CMC suspension in a volume of 1 ml/100 g of body weight. The UD50 (dose at which 50% of the animals had ulcers) was determined with the aid of Probit analysis and the confidence range was determined by the method of Fieller.

A short description of series [4]: Acetic acid extension test on mice (analgesic action). The note with it: mouse, in vivo, po. Here is the method: as §1, §2, §3
Series [5] relates to prostaglandin synthetases. The following applies: cited from earlier work.
The next series in a line: in vivo. The following applies: po, rat, administered orally, read-out: Toxicity LD50. Also on record: species or system rat (male and female Wistar). How it is done: The animals were used in the experiment after being fasted for about 18 hours and only received food again five hours after administration of the product. After a three-week observation period, they were sacrificed with chloroform and autopsied. The organs were assessed macroscopically. The test compounds were dissolved in 1% strength CMC suspension and administered to the rats through a stomach tube in a volume of 5 ml/kg BW.

In the next series the test system is isolated pig ureter. Kind of series: Inhibition of potassium chloride-induced spasms on the isolated pig ureter. From the text:
In contrast, the compounds of the formula I exert a significant inhibiting action in this experimental design.

In a further series the test system is gastric mucosa. In words: Gastrointestinal ulcerogenicity. Format: in vivo, rat (male Sprague-Dawley). The note with it: doses of up to 400 mg/kg, rat, oral. How it is done:
as §8, §9, §10, §11

The subject of series [6] is rats. In words: Antipyretic action, yeast fever test on rats. It counts as in vivo, rat (female Sprague-Dawley). The following applies: for Reduction in body temperature at 60 min / Reduction in body temperature at 120 min / Reduction in body temperature at 180 min / Reduction in body temperature at 240 min: rat, orally. Here is the method: The investigations were carried out on female Sprague-Dawley rats with a body weight of 150 g and fed on drinking water ad libitum and a standard diet. […] The body temperature was measured rectally by means of second thermometers at room temperature (24° C.). The number of animals was n=6 per dose. The average reduction in body temperature in comparison with the simultaneous value of the untreated control animals was recorded.

For series [7] the following is noted: biliary, gastrointestinal and urogenital tract; cited from earlier work.

`Cc1noc(C)c1C(=O)N1CCCCC1` [3,5-Dimethyl-4-isoxazole-carboxylic acid piperidide, reference compound]: in the series on mice, the responders at 158 mg/kg is 25%.
The same measure, in the same setting: as for `CCN(CC)C(=O)c1cnoc1C` [5-Methyl-4-isoxazolecarboxylic acid N,N--diethylamide, reference compound], the figure is 25%.
Regarding `CC(=O)Oc1ccccc1C(=O)O` [Acetylsalicylic acid, reference compound], the figures for the selectivity ratio in series [1] and in [4] were 8.2 and 10.9, respectively. The values for the 50% effective dose (ED50) in the series with rats [2] and in the series on mice were 182 mg/kg and 138 mg/kg, respectively. For the same compound, the TD50 at 24 h in [3] (administered orally, fasted, 24 h after administration, read-out: Ulcerogenicity UD50) was determined as 31 mg/kg. Moreover, the responders at 158 mg/kg in the series with mice was determined as 48%. For the same compound, the “Inhibition of peripheral prostaglandin biosynthesis” value in series [5] was “inhibitor of peripheral prostaglandin biosynthesis”. For the same compound, the 50% lethal dose (LD50) (as a rule, the dose expected to kill half of the subjects tested) at 504 h in the series “in vivo” was 1500 mg/kg.
On to `Cc1oncc1C(=O)N1CCCCC1` [Example 1, N-(5-Methyl-4-isoxazolylcarbonyl)-piperidine], for which the IC50 in the series on isolated pig ureter (Sus scrofa, potassium chloride-induced spasms, read-out: ED50 (inhibition of spasms), concentration) was 410 µg/mL (≈ 2110 µM). Moreover, the ED50 – broadly, the midpoint of the dose-response relation – with rats [2] turned out to be 85 mg/kg. This compound yielded a TD50 at 24 h in series [3] above 400 mg/kg. Also, the “Lesions of the mucous membrane” value with gastric mucosa is listed as “no lesions of the mucous membrane were detected”. Moreover, in the series with mice, the 50% effective dose (ED50) came to 45 mg/kg and the responders at 158 mg/kg came to 83%. Further, the “Reduction in fever in comparison with Paracetamol” value with rats [6] (50 mg/kg oral versus Paracetamol 100 mg/kg oral) was “both more powerful and clearly lasts longer than that of the comparison product Paracetamol”. Besides, in the series on rats [6] (50 mg/kg), the “Reduction in body temperature at 60 min” value worked out at 1.3 °C, the “Reduction in body temperature at 120 min” value came out at 1.6 °C, the “Reduction in body temperature at 180 min” value is 1.3 °C and the “Reduction in body temperature at 240 min” value is 0.8 °C. Besides, in the series with rats [6] (100 mg/kg), the “Reduction in body temperature at 60 min” value was found to be 2.0 °C, the “Reduction in body temperature at 120 min” value was found to be 2.0 °C, the “Reduction in body temperature at 180 min” value amounted to 1.5 °C and the “Reduction in body temperature at 240 min” value amounted to 1.1 °C.
As to `CCc1oncc1C(=O)N1CCCCC1` [Example 2, N-(5-Ethyl-4-isoxazolylcarbonyl)-piperidine], the responders at 158 mg/kg in the series with mice turned out to be 83%.
Same read-out and setting: to `Cc1oncc1C(=O)N1CCCC1` [Example 3, N-(5-Methyl-4-isoxazolylcarbonyl)-pyrrolidine] belongs 83%.
On to `Cc1oncc1C(=O)N1CCC(C)CC1` [Example 4, 4-Methyl-1-(5-methyl-4-isoxazolylcarbonyl)-piperidine], for which the responders at 158 mg/kg with mice stood at 67%.
On the same count and under the same terms, as for `Cc1oncc1C(=O)N1CCSCC1` [Example 5, N-(5-Methyl-4-isoxazolylcarbonyl)-thiomorpholine], the figure is 59%; as for `Cc1oncc1C(=O)N1CCC(O)CC1` [Example 6, 4-Hydroxy-1-(5-methyl-4-isoxazolylcarbonyl)-piperidine], 50%; as for `O=C(c1cnoc1)N1CCCCC1` [Example 7, N-(4-Isoxazolylcarbonyl)-piperidine], 50%.
Consider `O=C(c1cnoc1C(F)(F)F)N1CCCCC1` [Example 8, N-(5-Trifluoromethyl-4-isoxazolylcarbonyl)-piperidine], for which the responders at 158 mg/kg in the series on mice came out at 75%.
The same measure, in the same setting: as for `CCCc1oncc1C(=O)N1CCCCC1` [Example 9, N-(5-Propyl-4-isoxazolylcarbonyl)-piperidine], the figure is 67%.
Still for that read-out and setting: as for `Cc1oncc1C(=O)N1CCOCC1` [Example 10, N-(5-Methyl-4-isoxazolylcarbonyl)-morpholine], the figure is 42%.
With `CC(=O)Nc1ccc(O)cc1` [Paracetamol, reference compound], the “Inhibiting effect on spasms” value in the series on isolated pig ureter (potassium chloride) is reported as “no inhibiting effect on spasms”. For the same compound, the ED50 with rats [2] came out at 334 mg/kg. In series [3], this compound had a TD50 at 24 h above 400 mg/kg. Besides, the “Suitability for treating pain of spastic origin” value in series [7] is “unsuitable for treating pain of spastic origin”. In the series with mice, the ED50 was 155 mg/kg and the responders at 158 mg/kg was found to be 50%. Besides, in the series with rats [6] (100 mg/kg), the “Reduction in body temperature at 60 min” value worked out at 1.3 °C, the “Reduction in body temperature at 120 min” value stood at 1.1 °C, the “Reduction in body temperature at 180 min” value is 0.4 °C and the “Reduction in body temperature at 240 min” value stood at 0 °C.

(Values after US4636513A, “Isoxazole derivatives and medicaments containing these compounds” (Hoechst Aktiengesellschaft, priority 1984, dated 1987).)
